Laboratory results published in paper PMC8945814, “The Pyrazolo[3,4-d]Pyrimidine Derivative Si306 Encapsulated into Anti-GD2-Immunoliposomes as Therapeutic Treatment of Neuroblastoma” (Biomedicines, 2022).

Columns and labels:
[1] = system: HTLA-230; assay: MTT cytotoxicity assay; format: cell-based; conditions: Homo sapiens, 24 h exposure, 96 h total, ± S.D.
Protocol: (§1) Cytotoxicity experiments were performed to evaluate the effectiveness of Si306, either free (dissolved in DMSO) or encapsulated into untargeted and GD2-targeted liposomes. Briefly, IMR-32, HTLA-230 and SH-SY5Y cells were seeded in 96-well plates (8 × 10^3 cells/well). Human fibroblasts were used as GD2-negative healthy control cells (5 × 10^3 cells/well). The day after seeding, cells were incubated with increasing concentration of Si306 (0.1, 1.0, 10.0 and, 100.0 μM) either free or liposomes-encapsulated, for 24 h at 37 °C. Cells were then washed twice with PBS before replacing them with fresh complete medium and incubating for an additional 72 h (total incubation time equal to 96 h). At the end of the incubation, the MTT (Sigma) assay was performed. The tetrazolium dye was added, then plates were incubated for 3–4 h at 37 °C; formazan crystals were then dissolved in acid isopropanol, and then the optical density of the stained solution was quantified by the use of a Multiskan™ FC Microplate Photometer (Thermo Fisher Scientific Italia, Monza, Italy) at the dual wavelengths of 570 and 650 nm.

[2] = system: IMR-32; assay: MTT cytotoxicity assay; format: cell-based; conditions: Homo sapiens, 24 h exposure, 96 h total, ± S.D.
Protocol: as §1

[3] = system: SH-SY5Y; assay: MTT cytotoxicity assay; format: cell-based; conditions: Homo sapiens, 24 h exposure, 96 h total, ± S.D.
Protocol: as §1

[4] = biological target: c-Src tyrosine kinase; conditions: cited from earlier work
[5] = cited from earlier work
[6] = system: non-tumoral cells; conditions: cited from earlier work
[7] = system: subcutaneous NB animal model; conditions: oral administration; cited from earlier work
[8] = set-up: method as in PMID 31248184; conditions: 25 mg/kg, free compound in vivo; cited from earlier work

## ClC(Cn1ncc2c(Nc3cccc(Br)c3)nc(SCCN3CCOCC3)nc21)c1ccccc1 (centres unmarked) [Si306]
[1]
  IC50: 2.9 ± 0.3 µM
[2]
  IC50: 5.9 ± 1.4 µM
[3]
  IC50: 19.6 ± 0.7 µM
[4]
  Ki: 0.13 µM
[5]
  water solubility: low water solubility
[6]
  activity in non-tumoral cells: negligible activity
[7]
  tumor growth: delay of tumor growth
[8]
  signs of toxicity: without signs of toxicity
